Key:
Type in all cases: in vivo
[1] = tested on: blackgrass (Alopecurus myosuroides); assay: Test A postemergence application, visual injury rating 0-100
Method in brief: (§1)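 Visual injury, scored 0-100 (100 = complete control) against untreated plants, 10 days after greenhouse treatment. Test chemicals in surfactant-containing non-phytotoxic solvent were applied in loam soil and sand, as a preemergence soil spray on seeds or postemergence to plants at the one- to two-leaf stage.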

soybean (Glycine max) [2] = assay: as above
Method in brief: as §1

kochia (Bassia scoparia) [3] = assay: as above
Method in brief: as §1

[4] = tested on: green foxtail (Setaria viridis); assay: as above
Method in brief: as §1

[5] = tested on: galium (catchweed bedstraw, Galium aparine); assay: as above
Method in brief: as §1

[6] = tested on: oat, wild (wild oat, Avena fatua); assay: as above
Method in brief: as §1

[7] = tested on: palmer (palmer amaranth, palmer pigweed, Amaranthus palmeri); assay: as above
Method in brief: as §1

[8] = tested on: barnyardgrass (Echinochloa crus-galli); assay: as above
Method in brief: as §1

corn (Zea mays) [9] = assay: as above
Method in brief: as §1

[10] = tested on: ragweed (common ragweed, Ambrosia artemisiifolia); assay: as above
Method in brief: as §1

[11] = tested on: wheat (Triticum aestivum); assay: as above
Method in brief: as §1

[12] = tested on: horseweed (Erigeron canadensis); assay: as above
Method in brief: as §1

[13] = tested on: ryegrass, Italian (italian ryegrass, Lolium multiflorum); assay: as above
Method in brief: as §1

[14] = tested on: ducksalad (Heteranthera limosa); assay: Test B flooded paddy test, visual plant response rating 0-100; conditions: 250 g ai/ha, Flood, applied to paddy water, evaluated after 13 days
Method in brief: (§2)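 Greenhouse, 13 d. Seedlings at 2-leaf stage, pots flooded to 3 cm, compound delivered into floodwater, water level held constant. Evaluated visually relative to controls.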

rice (Oryza sativa) = assay: as above; conditions: 250 g ai/ha, Flood, applied to paddy water, evaluated after 13 days
Method in brief: as §2

[15] = tested on: barnyardgrass (Echinochloa crusgalli); assay: as above; conditions: 250 g ai/ha, Flood, applied to paddy water, evaluated after 13 days
Method in brief: as §2

[16] = tested on: sedge, umbrella (small-flower umbrella sedge, Cyperus difformis); assay: as above; conditions: 250 g ai/ha, Flood, applied to paddy water, evaluated after 13 days
Method in brief: as §2

[17] = tested on: blackgrass (Alopecurus myosuroides); assay: Test A preemergence soil spray, visual injury rating 0-100; conditions: 10 days
Method in brief: as §1

soybean (Glycine max) [18] = assay: as above; conditions: 10 days
Method in brief: as §1

kochia (Bassia scoparia) [19] = assay: as above; conditions: 10 days
Method in brief: as §1

[20] = tested on: green foxtail (Setaria viridis); assay: as above; conditions: 10 days
Method in brief: as §1

[21] = tested on: oat, wild (wild oat, Avena fatua); assay: as above; conditions: 10 days
Method in brief: as §1

[22] = tested on: palmer (palmer amaranth, palmer pigweed, Amaranthus palmeri); assay: as above; conditions: 10 days
Method in brief: as §1

[23] = tested on: barnyardgrass (Echinochloa crus-galli); assay: as above; conditions: 10 days
Method in brief: as §1

corn (Zea mays) [24] = assay: as above; conditions: 10 days
Method in brief: as §1

[25] = tested on: ragweed (common ragweed, Ambrosia artemisiifolia); assay: as above; conditions: 10 days
Method in brief: as §1

[26] = tested on: wheat (Triticum aestivum); assay: as above; conditions: 10 days
Method in brief: as §1

[27] = tested on: ryegrass, Italian (italian ryegrass, Lolium multiflorum); assay: as above; conditions: 10 days
Method in brief: as §1

[28] = 62 g ai/ha, postemergence, 10 days, 0 = no effect, 100 = complete control
[29] = Postemergence, 16 g ai/ha, greenhouse 10 days, 0 no effect, 100 complete control
[30] = 62 g ai/ha, 0 = no effect, 100 = complete control

## C=CC1(C(=O)NC2CC(C(=O)OC)C2)CN(c2cc(F)cc(F)c2)C(=O)O1 (stereo not shown) [Compound 175]
[1]; [28]
  Blackgrass plant response rating (0-100): 90
[1]; [29]
  Blackgrass plant response rating (0 to 100 scale): 60
Soybean (Glycine max) [2]; [28]
  Soybean plant response rating (0-100): 60
Soybean (Glycine max) [2]; [29]
  Soybean plant response rating (0 to 100 scale): 0
Kochia (Bassia scoparia) [3]; [28]
  Kochia plant response rating (0-100): 0
Kochia (Bassia scoparia) [3]; [29]
  Kochia plant response rating (0 to 100 scale): 0
[4]; [28]
  Foxtail, Green plant response rating (0-100): 90
[4]; [29]
  Foxtail, Green plant response rating (0 to 100 scale): 30
[5]; [28]
  Galium plant response rating (0-100): 90
[5]; [29]
  Galium plant response rating (0 to 100 scale): 90
[6]; [28]
  Oat, Wild plant response rating (0-100): 80
[6]; [29]
  Oat, Wild plant response rating (0 to 100 scale): 60
[7]; [28]
  Pigweed, Palmer plant response rating (0-100): 10
[7]; [29]
  Pigweed, Palmer plant response rating (0 to 100 scale): 0
[8]; [28]
  Barnyardgrass plant response rating (0-100): 70
[8]; [29]
  Barnyardgrass plant response rating (0 to 100 scale): 0
Corn (Zea mays) [9]; [28]
  Corn plant response rating (0-100): 20
Corn (Zea mays) [9]; [29]
  Corn plant response rating (0 to 100 scale): 0
[10]; [28]
  Ragweed plant response rating (0-100): 0
[10]; [29]
  Ragweed plant response rating (0 to 100 scale): 0
[11]; [28]
  Wheat plant response rating (0-100): 70
[11]; [29]
  Wheat plant response rating (0 to 100 scale): 30
[12]; [28]
  Horseweed plant response rating (0-100): 0
[12]; [29]
  Horseweed plant response rating (0 to 100 scale): 0
[13]; [28]
  Ryegrass, Italian plant response rating (0-100): 100
[13]; [29]
  Ryegrass, Italian plant response rating (0 to 100 scale): 70
[14]
  Plant response rating, Ducksalad (0 to 100 scale, 0 is no effect and 100 is complete control): 0
Rice (Oryza sativa)
  Plant response rating, Rice (0 to 100 scale, 0 is no effect and 100 is complete control): 0
[15]
  Plant response rating, Barnyardgrass (0 to 100 scale, 0 is no effect and 100 is complete control): 0
[16]
  Plant response rating, Sedge, Umbrella (0 to 100 scale, 0 is no effect and 100 is complete control): 0
[17]; 16 g ai/ha, 0 to 100 scale
  Blackgrass plant response rating: 40
[17]; [30]
  Blackgrass plant response rating (0-100): 60
Soybean (Glycine max) [18]; 16 g ai/ha, 0 to 100 scale
  Soybean plant response rating: 0
Soybean (Glycine max) [18]; [30]
  Soybean plant response rating (0-100): 0
Kochia (Bassia scoparia) [19]; 16 g ai/ha, 0 to 100 scale
  Kochia plant response rating: 0
Kochia (Bassia scoparia) [19]; [30]
  Kochia plant response rating (0-100): 0
[20]; 16 g ai/ha, 0 to 100 scale
  Foxtail, Green plant response rating: 0
[20]; [30]
  Foxtail, Green plant response rating (0-100): 90
[21]; 16 g ai/ha, 0 to 100 scale
  Oat, Wild plant response rating: 0
[21]; [30]
  Oat, Wild plant response rating (0-100): 0
[22]; 16 g ai/ha, 0 to 100 scale
  Pigweed, Palmer plant response rating: 0
[22]; [30]
  Pigweed, Palmer plant response rating (0-100): 0
[23]; 16 g ai/ha, 0 to 100 scale
  Barnyardgrass plant response rating: 0
[23]; [30]
  Barnyardgrass plant response rating (0-100): 50
Corn (Zea mays) [24]; 16 g ai/ha, 0 to 100 scale
  Corn plant response rating: 0
Corn (Zea mays) [24]; [30]
  Corn plant response rating (0-100): 0
[25]; 16 g ai/ha, 0 to 100 scale
  Ragweed plant response rating: 0
[25]; [30]
  Ragweed plant response rating (0-100): 0
[26]; 16 g ai/ha, 0 to 100 scale
  Wheat plant response rating: 40
[26]; [30]
  Wheat plant response rating (0-100): 90
[27]; 16 g ai/ha, 0 to 100 scale
  Ryegrass, Italian plant response rating: 10
[27]; [30]
  Ryegrass, Italian plant response rating (0-100): 90
